Laboratory results from the supplement of paper PMC10307832.

Experiments:
Assay in all cases: relative viability (nuclei count vs DMSO), 5 days (fraction); higher = more cells survive
[1] = compound: C1=CC=C(C(=C1)C2=CC=C(C=C2)C3=CSC4=C3C(=C(C(=O)N4)C#N)O)O + CC(=O)Nc1cccc(-n2c(=O)n(C3CC3)c(=O)c3c(Nc4ccc(I)cc4F)n(C)c(=O)c(C)c32)c1 [Trametinib] (partner 0.02 µM)
Procedure, shortened: (§1)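 Relative viability was taken as the ratio of nuclei in treated wells to nuclei in vehicle wells. Lung cancer cell lines in 1536-well plates received compounds by pin tool one day after seeding, either one drug alone or a fixed anchor-drug dose plus five library-drug doses (not always all listed) in √10 steps. Nuclei were counted on 4× images after 5 days of treatment, and values are medians of duplicate plates.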

[2] = compound: C1=CC=C(C(=C1)C2=CC=C(C=C2)C3=CSC4=C3C(=C(C(=O)N4)C#N)O)O + CS(=O)(=O)N1CCN(Cc2cc3nc(-c4cccc5[nH]ncc45)nc(N4CCOCC4)c3s2)CC1 [Pictilisib] (partner 1 µM)
Procedure, shortened: as §1

[3] = compound: CC1=CN2C(=O)C=C(N=C2C(=C1)C(C)NC3=CC=CC=C3)N4CCOCC4 [TGX 221] + Cc1nc(NC(=O)N2CCC[C@H]2C(N)=O)sc1-c1ccnc(C(C)(C)C(F)(F)F)c1 [Alpelisib] (partner 2 µM)
Procedure, shortened: as §1

[4] = compound: O=C(CCCCCCNC(=O)c1cnc(N(c2ccccc2)c2ccccc2)nc1)NO [Ricolinostat] + N=C(N)NC(=N)NCCc1ccccc1 [Phenformin] (partner 250 µM)
Procedure, shortened: as §1

Cell Line	relative viability ([1]; first compound 0.08 µM)	relative viability ([1]; first compound 0.253 µM)	relative viability ([1]; first compound 0.8 µM)	relative viability ([1]; first compound 2.53 µM)	relative viability ([1]; first compound 8 µM)	relative viability ([2]; first compound 0.08 µM)	relative viability ([2]; first compound 0.253 µM)	relative viability ([2]; first compound 0.8 µM)	relative viability ([2]; first compound 2.53 µM)	relative viability ([2]; first compound 8 µM)	relative viability ([3]; first compound 0.08 µM)	relative viability ([3]; first compound 0.253 µM)	relative viability ([3]; first compound 0.8 µM)	relative viability ([3]; first compound 2.53 µM)	relative viability ([3]; first compound 8 µM)	relative viability ([4]; first compound 0.253 µM)	relative viability ([4]; first compound 0.8 µM)	relative viability ([4]; first compound 2.53 µM)	relative viability ([4]; first compound 0.08 µM)
NCI-H441	0.35	0.443	0.431	0.496	0.362	0.437	0.596	0.593	0.546	0.452	0.889	0.723	0.717	0.768	0.848	0.956	0.889	0.643	–
NCI-H460	0.0954	0.101	0.201	0.108	0.151	0.339	0.325	0.367	0.319	0.333	0.386	0.295	0.274	0.167	0.137	0.512	0.494	0.476	0.389
NCI-H520	0.5	0.733	0.779	0.613	0.443	0.185	0.277	0.323	0.319	0.295	0.696	0.45	0.42	0.243	0.254	0.732	0.578	0.498	–
NCI-H596	0.73	0.827	0.891	0.695	0.747	0.178	0.407	0.395	0.373	0.378	0.423	0.419	0.445	0.403	0.387	0.749	0.7	0.694	0.836
NCI-H647	–	0.422	0.57	0.493	0.25	0.226	0.449	0.515	0.377	0.389	0.867	0.862	0.65	0.624	0.459	0.512	0.563	0.275	0.397
NCI-H650	1.11	1.01	0.991	1.02	0.987	0.978	0.975	0.841	0.86	0.91	1.23	1.02	1.13	0.912	0.791	0.454	0.397	0.281	0.373
NCI-H661	0.5	0.573	0.603	0.569	0.501	0.331	0.425	0.333	0.39	0.349	0.45	0.52	0.201	0.559	0.516	0.285	0.262	0.302	0.27
NCI-H727	0.39	0.373	0.384	0.423	0.331	0.376	0.407	0.427	0.353	0.308	0.591	0.436	0.484	0.557	0.513	0.734	0.529	0.572	0.342
NCI-H838	0.488	0.485	0.654	0.456	0.331	0.329	0.49	0.367	0.367	0.403	0.902	0.88	0.849	0.723	0.631	0.689	0.64	0.571	0.48
NCI-H1355	0.484	0.495	0.416	0.432	0.454	0.478	0.541	0.416	0.325	0.447	0.711	0.67	0.673	0.584	0.54	0.451	0.427	0.439	0.412
NCI-H1395	–	1.02	0.974	0.938	1.01	–	0.533	0.631	0.545	0.643	0.935	1.16	0.89	0.514	0.584	0.48	0.425	0.463	–
NCI-H1437	0.485	0.606	0.534	0.518	0.298	0.42	0.475	0.39	0.459	0.494	0.892	0.851	0.889	0.66	0.487	0.561	0.292	0.23	0.23
NCI-H1651	0.895	0.875	0.809	0.858	0.677	0.361	0.61	0.636	0.565	0.568	0.83	0.742	0.77	0.716	0.498	0.352	0.311	0.365	0.318
NCI-H1666	0.819	1.13	0.935	0.861	0.803	0.321	0.572	0.404	0.29	0.405	0.855	0.742	0.735	0.645	0.654	0.572	0.547	0.521	0.481
